In this experiment the target is T1, MeCP2-TBL1 interaction (MeCP2-SmBiT / TBL1-LgBiT) (Mus musculus, UniProt Q9QXE7).
T1 construct: expressed in transfected cells; crude lysate used as a cell-free assay
T1 sequence (Q9QXE7 166-527): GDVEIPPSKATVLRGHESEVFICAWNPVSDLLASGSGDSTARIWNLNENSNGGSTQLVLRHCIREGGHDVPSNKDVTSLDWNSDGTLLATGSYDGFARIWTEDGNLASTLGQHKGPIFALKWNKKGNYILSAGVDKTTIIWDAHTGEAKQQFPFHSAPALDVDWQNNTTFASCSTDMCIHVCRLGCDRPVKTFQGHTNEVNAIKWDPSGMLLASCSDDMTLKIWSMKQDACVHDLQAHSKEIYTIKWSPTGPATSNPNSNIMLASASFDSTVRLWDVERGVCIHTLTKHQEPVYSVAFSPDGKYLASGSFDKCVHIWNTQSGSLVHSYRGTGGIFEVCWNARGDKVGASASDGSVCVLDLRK
Nature of the experiment: MeCP2-TBL1 NanoLuc luciferase complementation assay (cell-free, extracts of transfected HEK293 cells). It is filed as binding, human. The text has this: To facilitate the discovery of inhibitors of the interaction between MeCP2 and TBL1/TBLR1, we set out to devise a simple and scalable biochemical assay for measuring the interaction between these two proteins. We initially explored the possibility of screening compound libraries using a previously established fluorescence polarization assay that depends on purified recombinant TBL1/TBLR1[26]. […] The resulting luminescence signal depends on the affinity between the two interacting proteins of interest (Fig. 1A). This method was originally developed to allow for the interrogation of protein–protein interactions in vivo. However, in order to facilitate large scale screening of chemical libraries, we adapted the assay for use as a cell-free system.
We fused the large N-terminal fragment of NanoLuc (LgBiT) to the C-terminus of the WD repeat domains of both TBL1 and TBLR1, and the small C-terminal fragment of NanoLuc (SmBiT) to the C-terminus of the C-terminal half of MeCP2 (Fig. 1B and C). This region of MeCP2 contains the NID (NCoR interaction domain)—the motif in MeCP2 that binds to TBL1/TBLR1.
The AgeI-NotI restriction fragment (encoding EGFP) was then replaced with a codon optimized SmBiT sequence to yield the MeCP2-SmBiT expression plasmid. The TBL1-LgBiT expression vector was derived from a TBL1-mCherry plasmid[25] by replacing the AgeI-NotI restriction fragment (encoding mCherry) with a codon optimized LgBiT sequence. SmBiT-PRKACA and LgBiT-PRKAR2A plasmids are commercially available (Promega, N203 and N204).
Cells were harvested after 24 h and cell pellets were stored at − 80 °C.
In the screens described here, the lysate obtained from a single 15 cm plate was used for 2.5 384-well assay plates. NanoLuc substrate (furimazine) (Promega, N1110) was diluted 1000-fold in passive lysis buffer (Promega, E1941) and added 1:1 to the lysate. Screening libraries were purchased from Asinex[40] and ApexBio (FDA-approved Drug Library, L1021). Compounds were dispensed using an Echo acoustic dispenser and tested at a final concentration of 20 µM in a total assay volume of 20 μl in 384-well plate format. DMSO was added to each well at a final concentration of 0.2% (v/v) and wells containing only DMSO were used as negative control. After 30 min incubation at room temperature, luminescence was measured on a Tecan M1000 multi-mode plate reader. Raw luminescence reads from each well on each plate were normalized to the median luminescence signal for that plate. In the ApexBio screen, the scaled and normalized PKA signal for each compound was subtracted from the MeCP2-TBL1 signal for the same compound. After plate normalization the robust SSMD (SSMD*) was calculated as described elsewhere. A threshold of SSMD* ≥ 3 was applied for discerning primary hits.
Assays were performed as described above except instead of a single concentration, a threefold serial dilution ranging from 60 to 0.03 μM was tested in triplicate for each of the compounds. Half-maximal inhibitory concentrations were calculated using global nonlinear regression by fitting the response data sets of all compounds simultaneously with a four-parameter logistic curve of log inhibitor concentration versus normalized luminescence using GraphPad Prism. During fitting, the maximum and minimum curve values were shared between the data sets.

Setting [1] is: primary screen of the Asinex library, sheet "Sargen output Asinex library", one well per compound.
Setting [2] is: primary screen of the Asinex library, sheet "Sargen output Asinex library", one well per compound, Batch Ref. 1.
Where [3] appears, read: primary screen of Asinex library, single well per compound.

Ends that are not written are not given here. * marks the point of attachment. Biotin = O=C1N[C@H]2[C@H](CS[C@H]2CCCCC(=O)*)N1

As to “35 amino acid peptide: 35 amino acid MeCP2 wild-type NID peptide (residues 285-319), N-terminal biotin (Biotin-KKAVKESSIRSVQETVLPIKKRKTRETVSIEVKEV; UniProt P51608 285-319, looked up, fragment) [reference compound]”, for the setting “peptide at 20 µM, n = 2”, the “effect of competitor peptide on MeCP2-TBL1 luminescence signal” value was “strongly inhibited”. Regarding `O=C(Cn1cccc(C(=O)NCc2ccccc2)c1=O)NC1(c2ccccc2)CCCC1` [BDB_26402348], the Inhibition percent under setting [1] turned out to be 2.11%. On to `CN(Cc1ccc2ncccc2c1)C(=O)Cn1cc(C(=O)NCc2ccccc2)ccc1=O` [BDB_26410269], for which the Inhibition percent under setting [1] was -0.72%. Take `O=C(Cn1cc(C(=O)NC2CCCCC2)ccc1=O)NCC1(c2ccccc2Cl)CC1` [BDB_26414870]: under setting [2], the Inhibition percent is 4.99%. With `C=CCC1(CC=C)CCN1C(=O)C1(Cc2ccc(-c3cccnc3)cc2)CCOCC1` [BDC_20667788], the Inhibition percent under setting [2] is on record as -1.31%. Consider `Cc1cccc(CC(=O)N2CCC(Cc3cccc(-c4cccnc4)c3)(C(N)=O)CC2)c1` [BDC_22461702], for which, under setting [2], the Inhibition percent is -2.13%. Turning to `CCOc1ccc(CN2CCCC2c2ncc(C(=O)NCc3ccc(F)cc3)c(C)n2)cc1` (centres unmarked) [BDC_23170699], the Inhibition percent under setting [2] is -3.60%. On the same count and under the same terms, in the case of `Cc1cccc(CC(=O)N2CCCCC2c2ncc(C(=O)NCc3ccccc3)c(C)n2)c1` (centres unmarked) [BDC_23190776] it was -1.94%. For `Cc1ccc(CC(=O)N2CCCC(c3ncc(C(=O)NCc4ccccc4)c(C)n3)C2)cc1` (centres unmarked) [BDC_23198767], the Inhibition percent under setting [1] is listed as -0.69%. `COc1ccccc1NC(=O)C1CN(C(=O)COc2ccccc2)Cc2cn(C)nc21` (centres unmarked) [BDC_23414979]: the Inhibition percent under setting [2] was -4.37%.

Consider `COc1ccc(CNC(=O)c2cnc(C)nc2C2CCCCN2C(=O)c2cnccn2)cc1` (centres unmarked) [BDC_23571437], for which, under setting [1], the Inhibition percent came to 0.37%.

Consider `CNC(=O)c1cnc(C)nc1C1CCCCN1CCS(=O)(=O)c1ccccc1` (centres unmarked) [BDC_23573041], for which, under setting [1], the Inhibition percent is given as -1.44%. `Cc1ncc(C(=O)N2CCOCC2)c(C2CCCCN2C(=O)c2nccc3ccccc23)n1` (centres unmarked) [BDC_23573125]: under setting [3], the Inhibition percent is -0.64.

In the case of `COc1ccc(C2CCCN2C(=O)Cn2cc(NC(=O)Cc3ccccc3F)cn2)cc1` (centres unmarked) [BDC_25693383], the Inhibition percent under setting [1] is given as -0.19%. Regarding `COc1cccc(Cc2cccc(C3CCCN(Cc4ccncc4)C3)n2)c1` (centres unmarked) [BDC_27849507], under setting [3], the Inhibition percent was -4.87. As for `COc1ccc(Cc2cccc(C3CCN(C(=O)Cc4ccc(F)cc4)CC3)n2)cc1` [BDC_27855593], under setting [1], the Inhibition percent is given as 0.65%. Regarding `CNc1ncccc1CN1CCCC(c2cccc(Cc3cccc(F)c3)n2)C1` (centres unmarked) [BDC_27866586], under setting [1], the Inhibition percent is on record as 7.34%. On to `CCN1C(=O)CC[C@@H](C(=O)NCCOc2ccccc2)[C@@H]1c1ccccc1F` [BDC_32230426], for which, under setting [2], the Inhibition percent is recorded as 0.19%. Take `COCCN1C(=O)C[C@@H](C(=O)NCc2ccccc2COC)[C@@H]1c1ccccc1` [BDC_32231307]: the Inhibition percent under setting [3] was -0.68. `O=C1CCCC[C@]2(CN(Cc3ccc(-c4ccccc4)cc3)C[C@H]2c2cc(F)cc(F)c2)N1` [BDD_20406167]: the Inhibition percent under setting [2] is 4.82%. As to `CCN1CCN(C(=O)CCC2NC(=O)NC2=O)C(Cc2ccc(-c3ccccc3)cc2)C1=O` (centres unmarked) [BDD_21846702], the Inhibition percent under setting [3] was -2.65. Take `COc1cccc(C(=O)N2CCNC(=O)C2Cc2cccc(-c3cccc(F)c3)c2)c1OC` (centres unmarked) [BDD_21847933]: under setting [2], the Inhibition percent is recorded as 1.68%. Regarding `C=CCN1CCN(C(=O)Cc2cccnc2)C(Cc2ccc(-c3cccs3)cc2)C1=O` (centres unmarked) [BDD_21855492], under setting [1], the Inhibition percent is 0.61%.

Take `CCN1CCN(C(=O)Cc2ccccc2OC)C(Cc2cccc(-c3ccncc3)c2)C1=O` (centres unmarked) [BDD_21872283]: the Inhibition percent under setting [2] is listed as -1.27%.

Take `O=C1CC(C(=O)N2CCNC(=O)C2Cc2cccc(-c3ccccc3)c2)c2ccccc2N1` (centres unmarked) [BDD_21879577]: the Inhibition percent under setting [2] is 4.73%.

For the molecule `CCN1CCN(C(=O)Cc2ccccc2OC)C(Cc2ccc(-c3cccnc3)cc2)C1=O` (centres unmarked) [BDD_21886831], under setting [2], the Inhibition percent is given as -2.52%. Turning to `CN(Cc1cccc(F)c1)Cc1nc(C2CC(=O)N(Cc3ccccc3)C2)cc(N(C)C)n1` (centres unmarked) [BDD_23510085], under setting [1], the Inhibition percent was -0.99%.

`O=C1CCC[C@]2(CN(Cc3cccc(-c4ccccc4F)c3)C[C@H]2c2ccccc2F)N1` [BDD_23570797]: the Inhibition percent under setting [2] was 11.53%. As for `O=C1CCC[C@]2(CN(Cc3cccc(-c4ccccc4F)c3)C[C@H]2c2ccc(F)c(F)c2)N1` [BDD_23570819], under setting [2], the Inhibition percent turned out to be 11.60%. Same read-out and setting: in the case of `COc1ccccc1-c1ccc(CN2C[C@@H](c3cccc(NC(C)=O)c3)[C@@]3(CCCCC(=O)N3)C2)cc1` [BDD_23570835] it was 5.89%; in that of `COc1ccccc1-c1cccc(CN2C[C@@H](c3cc(F)cc(F)c3)[C@@]3(CCCCC(=O)N3)C2)c1` [BDD_23570836], 1.23%. In the case of `Cc1ncc(C(=O)NCc2ccccc2)c(CC2CCN(C(=O)C3CCCCC3)CC2)n1` [BDD_23848427], under setting [2], the Inhibition percent is given as -4.61%. With `Cc1cnc(C(=O)N2CCC(Cc3nc(C)ncc3C(=O)NCc3ccccc3)CC2)cn1` [BDD_23852576], the Inhibition percent under setting [1] is 0.67%. For `COCCNC(=O)c1sc2ccccc2c1C1CN(C(=O)C(C)(C)OC)CCO1` (centres unmarked) [BDD_24015180], the Inhibition percent under setting [2] is reported as -2.46%.

For `CN1CCC(c2c(C(=O)NCCS(=O)(=O)NC3CCCCC3)sc3ccccc23)C1` (centres unmarked) [BDD_24044260], under setting [3], the Inhibition percent is -0.05. Turning to `NC(=O)c1cc(C2CN(C(=O)c3ccnc(N4CCCCC4)c3)CCO2)nc2ccccc12` (centres unmarked) [BDD_24083754], under setting [2], the Inhibition percent is -2.41%. `O=C(Cn1cccn1)N1CCOC(c2cc(C(=O)N3CCOCC3)c3ccccc3n2)C1` (centres unmarked) [BDD_24083810]: under setting [2], the Inhibition percent was -2.04%. For the molecule `COc1ccc(F)cc1-c1cccc(CC2(C(=O)NCCN3CCCCC3C)CCOCC2)c1` (centres unmarked) [BDD_24116196], under setting [1], the Inhibition percent is 5.71%. Still for that read-out and setting: in the case of `Cc1cc(C)cc(-c2cccc(CC3(C(=O)NCCCN4CCC(C)CC4)CCOCC3)c2)c1` [BDD_24116218] it was -2.01%; in that of `CCCC(=O)N1Cc2ccccc2OC2(CCC(N(C)CC3CCCCC3)CC2)C1` (centres unmarked) [BDD_24804536], -1.18%. Regarding `CC(=O)Nc1cccc([C@@H]2CN(Cc3ccc4c(c3)n(C)c(=O)n4C)C[C@]23CCCCC(=O)N3)c1` [BDD_25153608], the Inhibition percent under setting [1] is -1.53%. Regarding `Cc1cccc(Nc2ccc(C3CCCN3C(=O)COc3ccc4c(c3)OCCO4)nc2)n1` (centres unmarked) [BDD_25671481], the Inhibition percent under setting [2] is on record as 3.48%. `Cc1cc(-c2cnc(C(C)(C)C)nc2C2CCN(Cc3ccc(N4CCCC4)cc3)CC2)on1` [BDD_25871827]: the Inhibition percent under setting [1] amounted to 3.48%. As for `Cn1c(=O)c2ccc(C3CCCCN3C(=O)c3cc[nH]n3)nc2n(Cc2ccccc2)c1=O` (centres unmarked) [BDD_26868519], the Inhibition percent under setting [1] was determined as 4.40%.

For `COc1ccccc1CNC(=O)c1cn(C)nc1CC1CCN(C(=O)c2cccnc2)CC1` [BDD_26909786], the Inhibition percent under setting [2] is -3.87%. Consider `Cn1cc(CCC(=O)N2CCCC2c2ccc(CNC3Cc4ccccc4C3)cn2)c2ccccc21` (centres unmarked) [BDD_27352850], for which the Inhibition percent under setting [1] is given as -1.33%. Consider `Cc1nc2c(c(Nc3ccccn3)n1)CCN(S(=O)(=O)c1cccc(C(F)(F)F)c1)CC2` [BDD_27755359], for which the Inhibition percent under setting [2] is 6.69%.

Source of the values: publication PMC9995496, “A screen for MeCP2-TBL1 interaction inhibitors using a luminescence-based assay” (Scientific Reports, 2023).
